Source: PubChem BioAssay (NCI)
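Results reflect a 48-hour exposure of cells in 96-well plates to compound at five concentrations. GI50 = concentration required for 50% inhibition of growth. The concentration for full growth arrest is given as TGI.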

Assays:
Experiment in all cases: DTP human tumour cell line panel, 48 h
[1] = test system: 786-0 renal
[2] = test system: A498 renal
[3] = test system: A549 NSCLC
[4] = test system: ACHN renal
[5] = test system: BT-549 breast
[6] = test system: CAKI-1 renal
[7] = test system: CCRF-CEM leukemia
[8] = test system: COLO 205 colon
[9] = test system: DU-145 prostate
[10] = test system: EKVX NSCLC
[11] = test system: HCT-116 colon
[12] = test system: HCT-15 colon
[13] = test system: HL-60(TB) leukemia
[14] = test system: HOP-62 NSCLC
[15] = test system: HOP-92 NSCLC
[16] = test system: HS 578T breast
[17] = test system: HT29 colon
[18] = test system: IGROV1 ovarian
[19] = test system: K-562 leukemia
[20] = test system: KM12 colon
[21] = test system: LOX IMVI melanoma
[22] = test system: M14 melanoma
[23] = test system: MALME-3M melanoma
[24] = test system: MDA-MB-231 breast
[25] = test system: MDA-MB-435
[26] = test system: MOLT-4 leukemia
[27] = test system: NCI-H226 lung
[28] = test system: NCI-H460 lung
[29] = test system: NCI-H522 lung
[30] = test system: OVCAR-3 ovarian
[31] = test system: OVCAR-4 ovarian
[32] = test system: OVCAR-8 ovarian
[33] = test system: RPMI-8226 leukemia
[34] = test system: RXF 393 renal
[35] = test system: SF-268 CNS
[36] = test system: SF-295 CNS
[37] = test system: SF-539 CNS
[38] = test system: SK-MEL-2 melanoma
[39] = test system: SK-MEL-28 melanoma
[40] = test system: SK-MEL-5 melanoma
[41] = test system: SK-OV-3 ovarian
[42] = test system: SN12C renal
[43] = test system: SNB-19 CNS
[44] = test system: SNB-75 CNS
[45] = test system: SR leukemia
[46] = test system: SW-620 colon
[47] = test system: T-47D breast
[48] = test system: TK-10 renal
[49] = test system: U251 CNS
[50] = test system: UACC-257 melanoma
[51] = test system: UO-31 renal
[52] = test system: HCC-2998 colon
[53] = test system: MCF7 breast
[54] = test system: NCI-H23 lung
[55] = test system: NCI/ADR-RES ovarian
[56] = test system: OVCAR-5 ovarian
[57] = test system: UACC-62 melanoma

CCOC(=O)c1c(C)n(Cc2ccc(Cl)cc2Cl)c2c1cc1oc(=O)c(=O)n3cnc2c13
GI50 [1]: 18.3 µM
TGI [1]: 34.9 µM
GI50 [2]: 20.6 µM
TGI [2]: 36.1 µM
GI50 [3]: 9.71 µM
TGI [3]: 21.9 µM
GI50 [4]: 14.4 µM
TGI [4]: 27.5 µM
GI50 [5]: 21.6 µM
TGI [5]: 40.9 µM
GI50 [6]: 17 µM
TGI [6]: 32.3 µM
GI50 [7]: 6.31 µM
TGI [7]: 20.4 µM
GI50 [8]: 17 µM
TGI [8]: 33.3 µM
GI50 [9]: 17.3 µM
TGI [9]: 32.9 µM
GI50 [10]: 23.2 µM
TGI [10]: 43.3 µM
GI50 [11]: 18.6 µM
TGI [11]: 36 µM
GI50 [12]: 13.7 µM
TGI [12]: 27.3 µM
GI50 [13]: 5.43 µM
TGI [13]: 28.2 µM
GI50 [14]: 15.5 µM
TGI [14]: 33.1 µM
GI50 [15]: 13.9 µM
TGI [15]: 27.2 µM
GI50 [16]: 24.1 µM
TGI [16]: 64.2 µM
GI50 [17]: 11 µM
TGI [17]: 37.8 µM
GI50 [18]: 17.8 µM
TGI [18]: 34 µM
GI50 [19]: 5.14 µM
TGI [19]: 22.6 µM
GI50 [20]: 11.6 µM
TGI [20]: 26 µM
GI50 [21]: 14.2 µM
TGI [21]: 27.3 µM
GI50 [22]: 22.3 µM
TGI [22]: 41.6 µM
GI50 [23]: 10.4 µM
TGI [23]: 25.5 µM
GI50 [24]: 15.7 µM
TGI [24]: 31.4 µM
GI50 [25]: 16.3 µM
TGI [25]: 30.9 µM
GI50 [26]: 3.99 µM
TGI [26]: 20.7 µM
GI50 [27]: 19.7 µM
TGI [27]: 39.5 µM
GI50 [28]: 7.78 µM
TGI [28]: 20 µM
GI50 [29]: 16.4 µM
TGI [29]: 32.9 µM
GI50 [30]: 14.4 µM
TGI [30]: 31.9 µM
GI50 [31]: 11.9 µM
TGI [31]: 27.6 µM
GI50 [32]: 7.68 µM
TGI [32]: 25.8 µM
GI50 [33]: 6.32 µM
TGI [33]: 21.8 µM
GI50 [34]: 4.16 µM
TGI [34]: 15.3 µM
GI50 [35]: 16.3 µM
TGI [35]: 33.3 µM
GI50 [36]: 21.1 µM
TGI [36]: 43.1 µM
GI50 [37]: 20.6 µM
TGI [37]: 38.3 µM
GI50 [38]: 22.5 µM
TGI [38]: 56.5 µM
GI50 [39]: 14.2 µM
TGI [39]: 31.7 µM
GI50 [40]: 18 µM
TGI [40]: 34.3 µM
GI50 [41]: 23.5 µM
TGI [41]: 38.3 µM
GI50 [42]: 19 µM
TGI [42]: 35.2 µM
GI50 [43]: 17.4 µM
TGI [43]: 32.1 µM
GI50 [44]: 3.39 µM
TGI [44]: 15.3 µM
GI50 [45]: 1.09 µM
TGI [45]: 5.85 µM
GI50 [46]: 22.1 µM
TGI [46]: 40.5 µM
GI50 [47]: 12.8 µM
TGI [47]: 27.7 µM
GI50 [48]: 17.4 µM
TGI [48]: 33 µM
GI50 [49]: 14.7 µM
TGI [49]: 27.9 µM
GI50 [50]: 9.51 µM
TGI [50]: 21.7 µM
GI50 [51]: 16.1 µM
TGI [51]: 31.8 µM

C[N+](C)(C)C(CSSCC(C(=O)[O-])[N+](C)(C)C)C(=O)[O-] (centres undefined)
GI50 [15]: 72.1 µM
GI50 [25]: 25.5 µM
TGI [25]: 71.2 µM
GI50 [44]: 32.5 µM

CSc1ncc(Br)c(Sc2nc(N)nc3nc[nH]c23)n1
GI50 [1]: 3.82 µM
TGI [1]: > 100 µM
GI50 [2]: 3.62 µM
TGI [2]: 29 µM
GI50 [3]: 9.77 µM
TGI [3]: 71.1 µM
GI50 [4]: 4.5 µM
TGI [4]: 43.6 µM
GI50 [5]: 2.64 µM
TGI [5]: > 100 µM
GI50 [6]: 1.84 µM
TGI [6]: 34.1 µM
GI50 [7]: 2.38 µM
TGI [7]: 9.3 µM
GI50 [8]: 3.09 µM
TGI [8]: 9.17 µM
GI50 [9]: 1.44 µM
TGI [9]: 23.9 µM
GI50 [10]: 3.07 µM
TGI [10]: 55.1 µM
GI50 [52]: 2.56 µM
TGI [52]: 16.2 µM
GI50 [11]: 4.2 µM
TGI [11]: > 100 µM
GI50 [12]: 3.18 µM
TGI [12]: 50.8 µM
GI50 [13]: 4.34 µM
TGI [13]: 27.3 µM
GI50 [14]: 2.59 µM
TGI [14]: > 100 µM
GI50 [15]: 0.456 µM
TGI [15]: 5.23 µM
GI50 [16]: 6.71 µM
TGI [16]: > 100 µM
GI50 [17]: 4.09 µM
TGI [17]: 60.5 µM
GI50 [18]: 12.9 µM
TGI [18]: 44.2 µM
GI50 [19]: 2.01 µM
TGI [19]: 10.1 µM
GI50 [20]: 3.63 µM
TGI [20]: 22.7 µM
GI50 [21]: 0.816 µM
TGI [21]: 17.7 µM
GI50 [22]: 2.78 µM
TGI [22]: > 100 µM
GI50 [23]: 3.34 µM
TGI [23]: 18.3 µM
GI50 [53]: 1.91 µM
TGI [53]: 11.9 µM
GI50 [24]: 2.39 µM
TGI [24]: 58.3 µM
GI50 [25]: 2.5 µM
TGI [25]: > 100 µM
GI50 [27]: 2.65 µM
TGI [27]: 29.5 µM
GI50 [54]: 3.74 µM
TGI [54]: > 100 µM
GI50 [28]: 2.15 µM
TGI [28]: 13.3 µM
GI50 [29]: 3.97 µM
TGI [29]: 20.3 µM
GI50 [55]: 3.64 µM
TGI [55]: > 100 µM
GI50 [30]: 3.32 µM
TGI [30]: 11.1 µM
GI50 [31]: 5.08 µM
TGI [31]: > 100 µM
GI50 [56]: 4.98 µM
TGI [56]: > 100 µM
GI50 [32]: 3.78 µM
TGI [32]: > 100 µM
GI50 [34]: 2.97 µM
TGI [34]: 28.5 µM
GI50 [35]: 3.6 µM
TGI [35]: 85.6 µM
GI50 [36]: 1.15 µM
TGI [36]: > 100 µM
GI50 [37]: 3.2 µM
TGI [37]: 15 µM
GI50 [38]: 1.12 µM
TGI [38]: 7.33 µM
GI50 [39]: 6.63 µM
TGI [39]: 53 µM
GI50 [40]: 3.12 µM
TGI [40]: 36.1 µM
GI50 [41]: 1.62 µM
TGI [41]: 10.3 µM
GI50 [42]: 3.8 µM
TGI [42]: 36.5 µM
GI50 [43]: 22.3 µM
TGI [43]: > 100 µM
GI50 [44]: 2.82 µM
TGI [44]: 81.4 µM
GI50 [46]: 4.46 µM
TGI [46]: 24 µM
GI50 [47]: 1.95 µM
TGI [47]: 21.2 µM
GI50 [48]: 2.45 µM
TGI [48]: 15.8 µM
GI50 [49]: 10.3 µM
TGI [49]: 57 µM
GI50 [50]: 3.23 µM
TGI [50]: 37.9 µM
GI50 [57]: 2.48 µM
TGI [57]: 12.2 µM
GI50 [51]: 1.94 µM
TGI [51]: 11.2 µM
